This is an account of results in the supplement of paper PMC9103864.

In this experiment the test system is BMSC (primary human bone marrow mesenchymal stromal cells). The experiment in a line: absolute EC50 for viability; higher = less sensitive.
`CCn1cc(-c2ccnc3[nH]c(-c4cccc(CN(C)C)c4)cc23)c(-c2ccc(NC(=O)N(C)C)cc2)n1`: the “absolute EC50 for viability” value is greater than 1000 nM.
Then `Cn1cc(-c2cnn3c(N)c(Br)c([C@@H]4CCCNC4)nc23)cn1` [MK-8776], with greater than 2500 nM; and `CN(c1ncccc1CNc1nc(Nc2ccc3c(c2)CC(=O)N3)ncc1C(F)(F)F)S(C)(=O)=O`, with greater than 10000 nM; and `CN[C@@H](C)C(=O)N[C@H](C(=O)N1CCC[C@H]1c1nc(C(=O)c2ccc(F)cc2)cs1)C1CCCCC1` [NVP-LCL161], with greater than 25000 nM.
Next, `CC(C)[C@H]1C(=O)N[C@@H](CCCNC(=N)N)C(=O)NCC(=O)N[C@@H](CC(=O)O)C(=O)N[C@H](Cc2ccccc2)C(=O)N1C` [Cilengitide]: greater than 10000 nM; `O=C(Nc1ccc(OC(F)(F)Cl)cc1)c1cnc(N2CC[C@@H](O)C2)c(-c2cc[nH]n2)c1` [Asciminib]: greater than 1000 nM.
Next, `Cn1ncc(Cl)c1-c1cc(C(=O)N[C@H](CN)Cc2ccc(F)c(F)c2)oc1Cl` [Uprosertib]: greater than 10000 nM.
On to `COc1ccc(S(=O)(=O)Nc2cccnc2Nc2ccc(O)cc2)cc1` [ABT-751], for which the “absolute EC50 for viability” value is greater than 10000 nM.
Then `O=c1sn(-c2cccc3ccccc23)c(=O)n1Cc1ccccc1` [Tideglusib], with greater than 3000 nM; and `Nc1cc(C(F)(F)F)c(-c2cc(N3CCOCC3)nc(N3CCOCC3)n2)cn1` [Buparlisib], with 2110 nM.
Next, `C[C@@H](NC(=O)c1ncnc(N)c1Cl)c1ncc(C(=O)Nc2cc(C(F)(F)F)c(Cl)cn2)s1` [TAK-580]: greater than 10000 nM.
Turning to `S=C(NCc1ccc2c(c1)OCO2)N1CCN(c2ncnc3c2oc2ccccc23)CC1` [Amuvatinib], the “absolute EC50 for viability” value is greater than 10000 nM.
Then `Cc1ccc(C(=O)N(CCCN)[C@@H](c2oc3cc(Cl)ccc3c(=O)c2Cc2ccccc2)C(C)C)cc1`, with greater than 100 nM; and `CCNC(=O)CCC/C=C\C[C@@H]1[C@@H](/C=C/[C@@H](O)CCc2ccccc2)[C@H](O)C[C@@H]1O` [Bimatoprost], with greater than 5500 nM; and `Cc1sc2c(c1C)C(c1ccc(Cl)cc1)=N[C@@H](CC(=O)Nc1ccc(O)cc1)c1nnc(C)n1-2` [Birabresib], with greater than 10000 nM.
Next, `CCc1nc(C(N)=O)c(Nc2ccc(N3CCC(N4CCN(C)CC4)CC3)c(OC)c2)nc1NC1CCOCC1` [Gilteritinib]: greater than 1000 nM.
Next, `O=C(O)C1(C(=O)O)CCC1.[NH2-].[NH2-].[Pt+2]` [Carboplatin]: greater than 100000 nM.
Take `N#CC(c1ccnc(OCc2ccc(CN3CCOCC3)cc2)n1)c1nc2ccccc2s1` (stereo unspecified) [Bentamapimod]: the “absolute EC50 for viability” value was greater than 10000 nM.
Consider `CC(=O)c1c(C)c2cnc(Nc3ccc(N4CCNCC4)cn3)nc2n(C2CCCC2)c1=O` [Palbociclib], for which the “absolute EC50 for viability” value was greater than 10000 nM.
Then `CC(=O)Nc1cccc(-n2c(=O)n(C3CC3)c(=O)c3c(Nc4ccc(I)cc4F)n(C)c(=O)c(C)c32)c1` [Trametinib], with greater than 250 nM; and `Cc1cc(-c2nc(-c3ccc(OC(F)(F)F)cc3)no2)nn1Cc1ccnc(N2CCN(C3CC3)CC2)c1` [BAY 87-2243], with greater than 1000 nM; and `Cc1noc2c1-c1ccccc1C(c1ccc(Cl)cc1)=N[C@H]2CC(N)=O` [CPI-0610], with greater than 10000 nM.
Next, `COc1cc(C)c(/C=C/C(C)=C/C=C/C(C)=C/C(=O)O)c(C)c1C` [Acitretin]: greater than 10000 nM; `C=CC(=O)Nc1cc(Nc2nccc(-c3cn(C)c4ccccc34)n2)c(OC)cc1N(C)CCN(C)C` [Osimertinib]: greater than 2500 nM; `CC(=O)OC[C@H]1O[C@@H]([S-])[C@H](OC(C)=O)[C@@H](OC(C)=O)[C@@H]1OC(C)=O.CCP(CC)CC.[Au+]` [Auranofin]: 1390 nM.
For `Cc1nc(NC(=O)N2CCC[C@H]2C(N)=O)sc1-c1ccnc(C(C)(C)C(F)(F)F)c1` [Alpelisib], the “absolute EC50 for viability” value is greater than 2500 nM.
For the compound `CC[C@@H]1C(=O)N(C)c2cnc(Nc3ccc(C(=O)NC4CCN(C)CC4)cc3OC)nc2N1C1CCCC1` [BI 2536], the “absolute EC50 for viability” value was greater than 1000 nM.
Regarding `COc1cc2c(Nc3ccc(Cl)c(Cl)c3F)ncnc2cc1OC[C@@H]1C[C@@H]2CN(C)C[C@@H]2C1` [Tesevatinib], the “absolute EC50 for viability” value is greater than 1000 nM.
`Cc1sc2c(c1C)C(c1ccc(Cl)cc1)=N[C@@H](CC(=O)Nc1ccc(OCCOCCOCCOCCNc3cccc4c3C(=O)N(C3CCC(=O)NC3=O)C4=O)cc1)c1nnc(C)n1-2` (stereo partly specified) [ARV-825]: the “absolute EC50 for viability” value is 36 nM.
Then `Clc1ccc(Nc2nnc(Cc3ccncc3)c3ccccc23)cc1` [Vatalanib], with greater than 10000 nM; and `CC(=O)[C@]1(O)Cc2c(O)c3c(c(O)c2[C@@H](O[C@H]2C[C@H](N)[C@H](O)[C@H](C)O2)C1)C(=O)c1ccccc1C3=O` [Idarubicin], with 233 nM.
Then `Cc1ccccc1CN1C(=O)C2=C(CCN(Cc3ccccc3)C2)N2CCN=C12` [TIC10], with greater than 25000 nM.
Then `FC(F)c1nc2ccccc2n1-c1nc(N2CCOCC2)nc(N2CCOCC2)n1` [ZSTK474], with greater than 10000 nM; and `C=CC(=O)Nc1cccc(Nc2nc(Nc3ccc(N4CCN(C(C)=O)CC4)cc3OC)ncc2C(F)(F)F)c1` [Rociletinib], with 2860 nM.
For the compound `CN1CCc2c(c3ccccc3n2Cc2ccc(C(=O)NO)cc2)C1` [Tubastatin A], the “absolute EC50 for viability” value is 9930 nM.
Next, `CNC(=O)c1ccc2cc([C@@]3(O)CCn4cncc43)ccc2c1` [Orteronel]: greater than 10000 nM; `CCN(CC)CCNC(=O)c1c(C)[nH]c(/C=C2\C(=O)Nc3ccc(F)cc32)c1C` [Sunitinib]: greater than 1000 nM; `Cc1cccc(-c2[nH]c(CNc3ccccc3F)nc2-c2ccc3ncnn3c2)n1` [TEW-7197]: greater than 2500 nM.
Then `COc1c(OCCCN2CCOCC2)ccc2c3n(c(=NC(=O)c4cnc(N)nc4)nc12)CCN3` [Copanlisib], with 126 nM.
Then `CC1(COc2ccc3c(c2)ncn3-c2ccc3cccc(N4CCC(N)CC4)c3n2)COC1` [Crenolanib], with 1840 nM; and `COC(=O)c1ccc2c(C(=Nc3ccc(N(C)C(=O)CN4CCN(C)CC4)cc3)c3ccccc3)c(O)[nH]c2c1` [Nintedanib], with 2560 nM.
`Cc1c(C(=O)Nc2ccc(N3C[C@@H](C)O[C@@H](C)C3)nc2)cccc1-c1ccc(OC(F)(F)F)cc1` [Sonidegib]: the “absolute EC50 for viability” value is greater than 10000 nM.
Then `CCc1cncnc1N1CCN(Cc2nc3ccc(C(F)(F)F)cc3[nH]2)CC1`, with greater than 10000 nM; and `CN1CCN(c2nc(C3=C(c4c[nH]c5ccccc45)C(=O)NC3=O)c3ccccc3n2)CC1` [Sotrastaurin], with greater than 10000 nM; and `Nc1nccc(-c2c(-c3ccc(F)cc3)ncn2C2CCCCC2)n1`, with greater than 10000 nM.
Then `C[C@H]1C[C@@H]2[C@H]([C@@H](O)C[C@@]3(C)[C@H]2CC[C@]3(O)C(=O)CO)[C@@]2(C)C=CC(=O)C=C12` [Methylprednisolone], with greater than 10000 nM.
Consider `CCN1C(=O)CNc2ncc(-c3ccc(-c4nc[nH]n4)nc3C)nc21` [CC-115], for which the “absolute EC50 for viability” value came to 2860 nM.
Then `Cc1c(-c2ccc(N3CCc4cccc(C(=O)Nc5nc6ccccc6s5)c4C3)nc2C(=O)O)cnn1CC12CC3CC(CC(C3)C1)C2`, with greater than 1000 nM.
Next, `CC(C)(O)CNc1nc(Nc2ccnc(C(F)(F)F)c2)nc(-c2cccc(C(F)(F)F)n2)n1` [Enasidenib]: greater than 10000 nM; `CNC(=O)c1ccccc1Nc1cc(Nc2ccc(N3CCOCC3)cc2OC)ncc1C(F)(F)F` [VS-4718]: greater than 10000 nM.
Then `CNC(=O)c1ccc(N2C(=S)N(c3ccc(C#N)c(C(F)(F)F)c3)C(=O)C2(C)C)cc1F` [Enzalutamide], with greater than 10000 nM.
